The target of this assay is human ATX (Homo sapiens (Human), UniProt Q13822). Put plainly: Human ATX enzyme inhibition assay (fluorescence quenching, MR121 substrate). It counts as biochemical. To be noted: human His-tagged ATX 30 nM, MR121 substrate 1 μM, 30° C. How it is done: Human ATX Enzyme Inhibition Assay
ATX inhibition was measured by a fluorescence quenching assay using a specifically labeled substrate analogue (MR121 substrate). To obtain this MR121 substrate, BOC and TBS protected 6-amino-hexanoic acid (R)-3-({2-[3-(2-{2-[2-(2-amino-ethoxy)-ethoxy]-ethoxy}-ethoxy)-propionylamino]-ethoxy}-hydroxy-phosphoryloxy)-2-hydroxy-propyl ester (Ferguson et al., Org Lett 2006, 8 (10), 2023) was labeled with MR121 fluorophore (CAS 185308-24-1, 1-(3-carboxypropyl)-11-ethyl-1,2,3,4,8,9,10,11-octahydro-dipyrido[3,2-b:2′,3′-i]phenoxazin-13-ium) on the free amine of the ethanolamine side and then, after deprotection, subsequently with tryptophan on the side of the aminohexanoic acid.
Assay working solutions were made as follows:
Assay buffer (50 mM Tris-HCl, 140 mM NaCl, 5 mM KCl, 1 mM CaCl2, 1 mM MgCl2, 0.01% Triton-X-100, pH 8.0;
ATX solution: ATX (human His-tagged) stock solution (1.08 mg/mL in 20 mM bicine, pH 8.5, 0.15 M NaCl, 10% glycerol, 0.3% CHAPS, 0.02% NaN3), diluted to 1.4-2.5× final concentration in assay buffer;
MR121 substrate solution: MR121 substrate stock solution (800 μM MR121 substrate in DMSO), diluted to 2-5× final concentration in assay buffer.
Test compounds (10 mM stock in DMSO, 8 μL) were obtained in 384 well sample plates (Corning Costar #3655) and diluted with 8 μL DMSO. Row-wise serial dilutions were made by transferring 8 μL cpd solution to the next row up to row O. The compound and control solutions were mixed five times and 2 μL were transferred to 384 well assay plates (Corning Costar #3702). Then, 15 μL of 41.7 nM ATX solution was added (30 nM final concentration), mixed five times and then incubated for 15 minutes at 30° C. 10 μL of MR121 substrate solution was added (1 μM final concentration), mixed 30 times and then incubated for 15 minutes at 30° C.

The record followed here is patent US11352330B2, “Phenoxymethyl derivatives” (Hoffmann-La Roche Inc., priority 2015, dated 2022).

Usually IC50 stands for the concentration that inhibits the measured activity by half. Read a high IC50 as weaker potency in that assay.

`Cc1cc(OCc2n[nH]c(=O)n2C)c(-c2cc(C(=O)O)ccc2C)cc1Cl` [Example B50, 3-[5-chloro-4-methyl-2-[(4-methyl-5-oxo-1H-1,2,4-triazol-3-yl)methoxy]phenyl]-4-methylbenzoic acid]: half-maximal inhibition (IC50) required 173 nM.

The molecule `COCCNC(=O)c1cccc(-c2cc(Cl)c(C)cc2OCc2n[nH]c(=O)n2C)c1` [Example B17] registered an IC50 of 16 nM.

On to `Cc1cc(OCc2n[nH]c(=O)n2C)c(-c2cc(C(N)=O)ccc2OC(F)(F)F)cc1Cl` [Example B52], for which the midpoint of inhibition, the IC50, lay at 12 nM.

Take `COC(=O)CCNC(=O)c1cccc(-c2cc(Cl)c(C)cc2OCc2n[nH]c(=O)n2C)c1` [Example B44, Methyl 3-[[3-[5-chloro-4-methyl-2-[(4-methyl-5-oxo-1H-1,2,4-triazol-3-yl)methoxy]phenyl]benzoyl]amino]propanoate]: the IC50 came to 13 nM.

`Cc1nnc(-c2ccc(OCc3n[nH]c(=O)n3C)c(C(C)(C)C)c2)o1` [Example A10] displayed an IC50 of 104 nM.

Turning to `Cn1c(COc2cc(Cl)c(C#N)cc2-c2cc(OC3CC3)ccc2F)n[nH]c1=O` [Example B95], inhibition was half-maximal at 6 nM (IC50).

The molecule `Cc1cc(OCc2n[nH]c(=O)n2C)c(-c2cncn2C)cc1Cl` [Example B27, 3-[[4-Chloro-5-methyl-2-(3-methylimidazol-4-yl)phenoxy]methyl]-4-methyl-1H-1,2,4-triazol-5-one] had an IC50 of 3720 nM.

`Cc1cc(OCc2n[nH]c3ncccc23)c(-c2cc(C(=O)N3CCCC3)ccc2F)cc1Cl` [Example D42] returned an IC50 of 6 nM.

`N#Cc1cc(-c2cc(OC3CC3)ccc2F)c(OCc2n[nH]c3ncccc23)cc1Cl` [Example D53] returned an IC50 of 8 nM.

Take `Cc1cc(OCc2n[nH]c(=O)n2C)c(-c2cccnc2Cl)cc1Cl` [Example B18]: the IC50 amounted to 52 nM.

As to `Cc1cc(OCc2n[nH]c(=O)n2C)c(-c2cc(C(=O)N3CCCCC3)ccc2F)cc1Cl` [Example B69], half-maximal inhibition (IC50) required 9 nM.

For `Cc1cc(OCc2n[nH]c(=O)n2C)c(-c2cc(OC(C)C)ccc2F)cc1Cl` [Example B57], the IC50 was 11 nM. This IC50 and that of the molecule before are within 1.5-fold of each other.

The molecule `Cn1c(COc2ccc(N3CCOCC3)cc2C(C)(C)C)n[nH]c1=O` [Example A8] came in with an IC50 of 1600 nM.

The molecule `Cc1cc(OCc2n[nH]c(=O)n2C)c(-c2ccccc2S(C)(=O)=O)cc1Cl` [Example B7] gave an IC50 of 4200 nM.

In turn, `Cc1cc(OCc2n[nH]c3ncccc23)c(C(C)(C)C)cc1Cl` [Example D3, 3-[(2-tert-Butyl-4-chloro-5-methylphenoxy)methyl]-1H-pyrazolo[3,4-b]pyridine] yielded an IC50 of 4 nM. This IC50 is about 1000-fold lower than that of the molecule before.

Consider `Cn1c(COc2cc(Cl)c(C#N)cc2-c2cc(OC(F)(F)F)ccc2F)n[nH]c1=O` [Example B97, 2-chloro-5-[2-fluoro-5-(trifluoromethoxy)phenyl]-4-[(4-methyl-5-oxo-1H-1,2,4-triazol-3-yl)methoxy]benzonitrile], for which the IC50 turned out to be 8 nM.

Molecule `COc1ncccc1-c1cc(Cl)c(C)cc1OCc1n[nH]c2cnccc12` [Example D47] yielded a 50% inhibitory concentration (IC50) of 11 nM.

`Cc1cc(OCc2n[nH]c(=O)n2C)c(-c2cc(C(=O)N3CCCC3)ccc2F)cc1Cl` [Example B62] showed an IC50 of 9 nM.

Consider `Cc1cc(OCc2n[nH]c3nc(N4CC(O)C4)ncc23)c(C(C)(C)C)cc1C#N` [Example D32, 5-tert-Butyl-4-[[6-(3-hydroxyazetidin-1-yl)-1H-pyrazolo[3,4-d]pyrimidin-3-yl]methoxy]-2-methylbenzonitrile], for which the midpoint of inhibition, the IC50, lay at 8 nM.

`Cn1c(COc2cc(Cl)c(C#N)cc2-c2cccc(F)c2)n[nH]c1=O` [Example B85] yielded an IC50 of 21 nM. This IC50 lies about 2.6-fold higher than the previous one.

For `Cc1cc(OCc2n[nH]c3nc(N4CC(O)C4)ncc23)c(C(C)(C)C)cc1Cl` [Example D29], the IC50 turned out to be 10 nM.

In turn, `Cc1cc(OCc2n[nH]c(=O)n2C)c(-c2cccc(C(=O)NCC(=O)O)c2)cc1Cl` [Example B48] displayed an IC50 of 192 nM.

As to `Cc1cc(OCc2n[nH]c3ccccc23)c(C(C)C)cc1Cl` [Example D2, 3-[(4-Chloro-5-methyl-2-propan-2-ylphenoxy)methyl]-1H-indazole], the IC50 came to 14 nM.

For the molecule `COCCN(C)C(=O)c1ccc(F)c(-c2cc(Cl)c(C)cc2OCc2n[nH]c3cnccc23)c1` [Example D46], 4 nM corresponded to half-maximal inhibition (IC50).

Molecule `Cc1cc(OCc2n[nH]c3ncccc23)c(-c2ccno2)cc1Cl` [Example D5] yielded an IC50 of 1 nM.

In turn, `Cc1cc(OCc2n[nH]c3cccnc23)c(C(C)(C)C)cc1Cl` [Example D23] registered an IC50 of 21 nM.

`COc1ncccc1-c1cc(Cl)c(C)cc1OCc1n[nH]c2c1CCNC2` [Example E7, 3-((4-Chloro-2-(2-methoxypyridin-3-yl)-5-methylphenoxy)methyl)-4,5,6,7-tetrahydro-1H-pyrazolo[3,4-c]pyridine] returned an IC50 of 202 nM.

With `Cc1cc(OCc2n[nH]c3ncccc23)c(-c2cc(C(=O)N3CCN(C)C(=O)C3)ccc2F)cc1Cl` [Example D39], half-maximal inhibition (IC50) was put at 8 nM.

`Cc1cc(OCc2n[nH]c3nc(NCCO)ccc23)c(C(C)(C)C)cc1Cl` [Example D7, 2-[[3-[(2-tert-Buty-4-chloro-&-methylphenoxy)methyl]-1H-pyrazolo[3,4-b]pyridin-6-yl]amino]ethanol]: the IC50 is 12 nM. This IC50 lies about 1.5-fold higher than the previous one.

For the molecule `Cc1cc(OCc2n[nH]c(=O)n2C)c(-c2cccc(Cl)c2)cc1Cl` [Example B3], the IC50 stood at 1 nM.

For the molecule `Cc1cc(OCc2n[nH]c3ncccc23)c(C(C)(C)C)cc1S(C)(=O)=O` [Example D9], inhibition was half-maximal at 215 nM (IC50).

For `Cn1c(COc2ccc(-c3ncc[nH]3)cc2C(C)(C)C)n[nH]c1=O` [Example A32, 3-[[2-tert-butyl-4-(1H-imidazol-2-yl)phenoxy]methyl]-4-methyl-1H-1,2,4-triazol-5-one], the midpoint of inhibition, the IC50, lay at 3770 nM.

`Cc1cc(OCc2n[nH]c(=O)n2C)c(C2CCCCC2)cc1Cl` [Example A20]: half-maximal inhibition (IC50) was put at 8 nM.

The molecule `Cc1cc(OCc2n[nH]c(=O)n2C)c(-c2cccc(C(N)=O)c2)cc1Cl` [Example B11] had an IC50 of 166 nM.

For `CC(C)Oc1ccc(F)c(-c2cc(C#N)c(Cl)cc2OCc2n[nH]c(=O)n2C)c1` [Example B89], the IC50 is 4 nM.

The molecule `Cc1cc(OCc2n[nH]c(=O)n2C)c(-c2cc(C(=O)N(C)Cc3ccccn3)ccc2F)cc1Cl` [Example B71] displayed an IC50 of 9 nM.

As for `COc1cccc(-c2cc(Cl)c(C)cc2OCc2n[nH]c(=O)n2C)n1` [Example B21], it took 104 nM to reach half-maximal inhibition (IC50). Against the preceding molecule, the IC50 is about 12-fold higher.

Regarding `Cc1cc(OCc2ccc(=O)[nH]n2)c(C2CCOCC2)cc1Cl` [Example C7, 3-[[4-chloro-5-methyl-2-(oxan-4-yl)phenoxy]methyl]-1H-pyridazin-6-one], the half-maximal inhibitory concentration (IC50) stood at 22 nM.

Take `Cc1cc(OCc2n[nH]c3nc(OCC(O)CO)ncc23)c(C(C)(C)C)cc1C#N` (centres unmarked) [Example D37, 5-tert-Butyl-4-[[6-(2,3-dihydroxypropoxy)-1H-pyrazolo[3,4-d]pyrimidin-3-yl]methoxy]-2-methylbenzonitrile]: the IC50 is 6 nM.

The molecule `Cc1cc(OCc2n[nH]c(=O)n2C)c(-c2cc(C(=O)N(C)C)ccc2C)cc1Cl` [Example B51, 3-[5-Chloro-4-methyl-2-[(4-methyl-5-oxo-1H-1,2,4-triazol-3-yl)methoxy]phenyl]-N,N,4-trimethylbenzamide] gave an IC50 of 17 nM.

`Cn1c(COc2cc(Cl)c(C#N)cc2-c2cc(Cl)ccc2F)n[nH]c1=O` [Example B93] returned an IC50 of 5 nM.

`Cc1cc(OCc2n[nH]c(=O)n2C)c(-c2cccc(C(=O)NC3CCCCC3)c2)cc1Cl` [Example B9] gave an IC50 of 12 nM.

For the molecule `CC(C)(C)c1cc(S(C)(=O)=O)ccc1OCc1n[nH]c2ccccc12` [Example D1], the IC50 is 245000 nM.

In turn, `COc1ncccc1-c1cc(Cl)c(C)cc1OCc1n[nH]c2ncccc12` [Example D20] displayed an IC50 of 22 nM.

`Cc1cc(OCc2n[nH]c(=O)n2C)c(-c2cnc[nH]2)cc1Cl` [Example B28, 3-[[4-Chloro-2-(1H-imidazol-5-yl)-5-methylphenoxy]methyl]-4-methyl-1H-1,2,4-triazol-5-one] yielded an IC50 of 5940 nM. This IC50 lies about 270-fold higher than the previous one.

As for `Cc1cc(OCc2n[nH]c(=O)n2C)c(-c2cc(C(=O)N(C)CC3CC3)ccc2F)cc1Cl` [Example B70], inhibition was half-maximal at 4 nM (IC50).

As for `Cn1c(COc2ccc(-c3ncco3)cc2C(C)(C)C)n[nH]c1=O` [Example A7], the IC50 was determined as 13 nM.

The molecule `Cc1cc(OCc2n[nH]c(=O)n2C)c(C(C)(C)C)cc1C#N` [Example A16] returned an IC50 of 5 nM.

`COC(=O)c1cc(COc2cc(C)c(Cl)cc2C(C)(C)C)n[nH]1` [Example F3, Methyl 3-((2-(tert-butyl)-4-chloro-5-methylphenoxy)methyl)-1H-pyrazole-5-carboxylate] returned an IC50 of 10 nM. Against the preceding molecule, the IC50 is about 2-fold higher.

For the molecule `Cc1cc(OCc2cc[nH]n2)c(C(C)(C)C)cc1Cl` [Example F1, 3-((2-tert-Butyl-4-chloro-5-methylphenoxy)methyl)-1H-pyrazole], the IC50 came to 27 nM.
